Columns and labels:
Aedes aegypti = experiment: Spatial repellency, high-throughput glass tube assay; assay type: in vivo; conditions: concentration repelling 50% of adult female Aedes aegypti, treated filter paper in glass tube
Description: Adult female non-bloodfed Aedes aegypti that were 2-10 days post-eclosion were cold-anesthetized by placing on ice for several minutes. Each replicate consisted of 16 anesthetized females transferred to a glass tube (length 12.5 cm, outer diameter 2.5 cm) (TriKinetics Inc., Waltham, MA). Glass tubes were then enclosed on each end by netting held in place with blue caps removed from 50-mL polypropylene centrifuge tubes (Falcon™; Corning Inc., Corning, NY). Mosquitoes were allowed at least 15 min to recover from cold anesthetization. Round filter papers (diameter 2.5 cm) (Sigma-Aldrich Chemical Co., CITY, ST) were treated with 50 μL solution of compound dissolved in acetone at different concentrations. Treated filter papers were allowed to air dry for 10 min to allow for acetone evaporation, at which point filter papers were placed inside the cut ends of 50-mL polypropylene centrifuge tubes. The end caps with treated filter paper were then placed on the ends of the glass tubes, replacing the blue caps, with the netting left to prevent mosquito escape.
Glass tube bioassay setups were placed on a contrasting white background to facilitate observing and counting mosquitoes with a black line drawn to mark the center of the tube length. Control bioassays were set up with filter papers treated with 50 μL of acetone. Repellency was calculated as a repellency ratio using the formula: number of mosquitoes on the experimental treatment side/16, where a value of 0 is equal to full repellency and a value of 0.5 indicates no effect—i.e., an even distribution of mosquitoes on either side the tube midline. Data were recorded at 15 min, 30 min, and 1 hr for repellency and knockdown, as well as at 24 hr for mortality. […] Each concentration was replicated at least three times. After use, glass tubes were decontaminated by washing in soapy water and rinsed with acetone and distilled water. Treatment caps and nettings were washed using soapy water and rinsed with distilled water. Data were analyzed using a 4-parameter logistic regression in GraphPad Prism 9. The effective concentration that repelled 50% of mosquitoes (EC50) was used to compare different treatments.

Aedes albopictus = conditions: compounds identified from massoia and nutmeg essential oils; cited from earlier work
[1] = test system: mosquitoes or biting flies; experiment: Contact repellency, cloth patch test (minimum effective dose); assay type: in vivo; conditions: minimum effective dose on cloth
Description: The cloth patch test can be used to assess the effective repellency duration for a particular application rate of a chemical to cloth being worn on the arm of a human subject. The test allows candidate repellents to be tested without contacting the skin. The candidate substance is dissolved initially in a suitable solvent which is typically acetone; however, can be extended to ethanol or DMSO (dimethyl sulfoxide). The typical protocol for a limited quantity of substance involves dissolving up to 75 mg of the candidate repellent into 1 mL of an appropriate volatile solvent, such as acetone or ethanol, in a 2-dram vial. The choice of solvent depends upon the miscibility characteristics of the candidate repellent. A 50 cm^2 (5 cm×10 cm) clean, untreated piece of muslin cloth is rolled, placed in the vial and sealed therein to allow the cloth to saturate completely with the solution. […] Prior to the bioassay, the saturated cloth is removed and each end of the cloth is attached to a 5 cm×2.5 cm piece of cardstock paper. To each card, masking tape is attached. The card/cloth assembly is then allowed to dry for 15 min hanging from a rack by the masking tape. This time is adequate to allow complete evaporation of the solvent from the cloth.
To prepare the arm for testing, the volunteer first places a latex or nitrile glove (extended length beyond the wrist) over the hand and arm and then pulls a nylon hose stocking over the hand and arm up to a point that is past the elbow. This glove prevents mosquitoes from biting through to the hand, wrist, and part of the arm where the glove provides protection. A thick plastic sleeve with a Velcro® strip is then fastened around the arm. There is a 4 cm×8 cm window opening cut into the sleeve. Volunteers may elect to use either of the two designs of this sleeve: one has a window opening with a screen mesh, the other is completely open. The cloth card frame is then taped onto the forearm at a position overlapping the window opening of the sleeve. This allows attractive human odors to escape through the opened area of the sleeve and this small window is the only area accessible for bites. Once the cloth/card assembly is on the arm, the arm is placed inside an insect cage with mosquitoes or biting flies for one minute. Typically, the test involves 500 biting flies or mosquitoes, but can be performed at a variety of biting pressures from 200-2000 individuals, but is rarely ever performed at a pressure of greater than 2000 in a cage. […]
If a sufficient quantity of the candidate repellent is available, the minimum effective dose (MED) can be determined. […] In these cases, stoichiometric equivalents, i.e., micromolar quantities, are applied to the cloth and tested as described above. […]

[2] = test system: Aedes aegypti mosquitoes (susceptible—Orlando strain); experiment: Topical application, knockdown and mortality; conditions: in vivo
Description: Aedes aegypti mosquitoes (susceptible—Orlando strain) were reared using standard protocols at the United States Department of Agriculture, Agricultural Research Service Center for Medical, Agricultural, and Veterinary Entomology (CMAVE) in Gainesville, FL. Mosquitoes raised from pupae were aspirated from colony cages and anesthetized on ice. Mosquitoes were then treated with 0.2 μL of variable concentrations of insecticidal active ingredients using a repeating microapplicator (Hamilton Co., Reno, NV). Ten mosquitoes were used per concentration and at least three different biological cohorts were used in the analysis. Knockdown (defined as inability to fly or orient in the upright direction) was recorded at 1 hr or other time points post application (depending on the experiment), whereas mortality (defined as no movement-ataxia) was recorded at 24 hr. Concentrations that produced 10-90% mortality at 24 hr post exposure were used in the analysis to calculate the lethal dose required to kill 50% of the population (LD50). SAS 9.4 was used to calculate the LD50 values using a PROC PROBIT model with Abbott's correction to account for any control mortality.

[3] = test system: central nervous system (CNS) of third-fourth-instar Aedes aegypti larvae; experiment: Central nervous system recording of mosquito larvae; conditions: applied at 100 μM
Description: Extracellular recordings were performed on the central nervous system (CNS) of third-fourth-instar Aedes aegypti larvae as previously described in Norris et al., “Recording central neurophysiological output from mosquito larvae for neuropharmacological and insecticide resistance studies”, Journal of Insect Physiology, 135 (2021) 104319. Mosquito larvae were pinned down and dissected to expose the descending ventral nerve cord in a saline bath (157 mM NaCl, 3 mM KCl, 2 mM CaCl2), 4 mM HEPES). The ventral nerve cord was severed using a small forceps between the second and third abdominal ganglion. Descending electrical activity was monitored by drawing emanating nerve fibers from the ventral nerve cord into a suction electrode connected to an AC/DC differential amplifier (Model 3000, A-M Systems, Inc., Carlsborg, WA). Signals were subjected to window amplitude discrimination and converted into a rate plot, expressed in Hertz (Hz), using LabChart 7 Pro software (AD Instruments Inc. Colorado Springs, CO). Noise (60 Hz) was eliminated using a Hum Bug (A-M Systems, Sequim, WA,).
Electrical activity was monitored for approximately 5-10 min to establish a baseline CNS firing rate before test solutions were added to the bath in DMSO at 1 μL of solution diluted into 999 μL of saline. All concentrations of active ingredients were expressed as their final concentrations in saline. […]

EC50 (spatial repellency) (Aedes aegypti) | Compound | larvicidal activity (in words) (Aedes albopictus) | other results
108.5 μg/cm^2 | C/C=C/C(=O)C1C(C)C=CCC1(C)C (centres unmarked) [δ-damascone] |  | 
 | O=C(OCc1ccccc1)c1ccccc1 [benzyl benzoate] | strong larvicidal activity | 
91.8 μg/cm^2 | CCCCN(CCC(=O)OCC)C(C)=O [IR3535, ethyl butylacetylaminopropionate, reference compound] |  | 
 | CC1(C)C(C=C(Cl)Cl)C1C(=O)OCc1cccc(Oc2ccccc2)c1 (centres unmarked) [permethrin] |  | MED [1]: 0.100 ± 0.022 ^A mg/cm^2
29.5 μg/cm^2 | δ-undecalactone |  | 
 | CC1=CCC(=C(C)C)CC1 [terpinolene] | strong larvicidal activity | 
5.9 μg/cm^2 | CCCCCC1CC=CC(=O)O1 (centres unmarked) [massoia lactone, 2H-pyran-2-one, 5,6-dihydro-6-pentyl-] | strong larvicidal activity | Slope (LD50) [2]: 8.3; nerve block (CNS firing) [3]: some nerve block; MED [1]: 0.007 ± 0.002 ^B mg/cm^2
77.11 μg/cm^2 | CCCCCCCC1CCCC(=O)O1 (centres unmarked) [5-dodecanolide] |  | 
60.5 μg/cm^2 | jasmolactone |  | 
 | CCCCCCC[C@@H]1CC=CC(=O)O1 [C12 massoia lactone, C-12-massoia lactone] | strong larvicidal activity | 
6.1 μg/cm^2 | CCCCCc1cccc(=O)o1 [α-amyl-pyrone] |  | 
 | CCC(C)OC(=O)N1CCCCC1CCO (centres unmarked) [icaridin] |  | MED [1]: 0.015 ± 0.004 ^B mg/cm^2
 | C=C1CCC2(C(C)C)CC12 (centres unmarked) [sabinene] | strong larvicidal activity | 
 | CCN(CC)C(=O)c1cccc(C)c1 [DEET, N,N-Diethyl-meta-toluamide] |  | MED [1]: 0.009 ± 0.003 ^B mg/cm^2
 | O=C(OCc1ccccc1)c1ccccc1O [benzyl salicylate] | strong larvicidal activity | 

Compound | EC50 (spatial repellency) (Aedes aegypti) | larvicidal activity (in words) (Aedes albopictus) | other results
CCCCCCCC1CCC(=O)O1 (centres unmarked) [γ-undecalactone] | 18.32 μg/cm^2 |  | 

— patent US20250324983A1, “METHOD AND APPARATUS FOR CONTROLLING ARTHROPODS USING MASSOIA ESSENTIAL OIL AND RELATED PYRONES” (The United States of America, as Represented by the …, priority 2024, published 2025)
